Source: patent publication US11759451B2, “Therapeutic potential of glycopyrrolate and mexiletine for nervous system injury” (City University of Hong Kong, priority 2020, dated 2023)
Entries after “also recorded” stand apart in the source; their conditions may differ.

Tests used:
[1] = test system: axotomized dorsal root ganglion (DRG) neurons; assay: neurite outgrowth assay in primary cultures of axotomized DRG neurons; type: cell-based, adult C57BL/6 mice; settings: vs 0.1% DMSO solvent control; for average total neurite length (neurite outgrowth): glycopyrrolate 5, 10 and 100 μM or mexiletine 10, 50 and 100 μM added 1 h after plating, 17 h growth; for cell survival of DRG neurons: same cultures, 17 h
Method: Primary cultures of DRG neurons were prepared from adult C57BL/6 mice, and plated onto a poly-D-lysine and laminin-coated 8-well chamber. Glycopyrrolate and mexiletine were added into the cultured DRG neurons at various concentrations as indicated one hour after plating. 0.1% DMSO served as solvent control. The cultures were allowed to grow for 17 h. After fixation, the DRG neurons were immunostained with anti-βIII-tubulin primary antibodies highlighting the cell bodies of DRG neurons and their adjacent neurites for neurite outgrowth assay. (A) Average total neurite length was quantified using automated WIS-NeuroMath 5 software. […] Scale bar: 500 μm.
In the current study, the intrinsic growth capacity of peripheral neurons was first assessed, which is a critical determinant for successful axon regeneration after injury, after treating the neurons with glycopyrrolate and mexiletine. Primary culture of adult dorsal root ganglion (DRG) neurons is a widely used in vitro models to assess cues that could promote axonal outgrowth. Primary DRG neurons were prepared from adult C57BL/6 mice (8-12 weeks old). DRG neurons were dissected out, mildly digested with a solution of collagenase and dispase II (Roche Diagnostics), trypsinized and mechanically dissociated into single cell suspension using flame-polished Pasteur pipettes with three different diameters. Two thousand DRG neurons were plated onto an 8-well chamber slide pre-coated with poly-D-lysine and laminin (Sigma Aldrich), and cultured in full Neurobasal medium (Gibco) supplemented with B27, 200 mM L-glutamine, penicillin-streptomycin, 50 ng/ml NGF (Gibco), 10 μM Ara-C and 2 ng/ml GDNF (Gibco). Glycopyrrolate (5, 10 and 100 μM) or mexiletine (10, 50 and 100 μM) was added into the cultured neurons 1 hour after plating, and the cultures were allowed to grow for 17 hours.
After 17 hours of incubation, the cultures were fixed with 4% paraformaldehyde (PFA), blocked with 0.5% bovine serum albumin (BSA)/0.1% Triton X-100 in PBS for 1 hour at room temperature, and incubated with anti-β III-tubulin primary antibodies (1:800, Sigma Aldrich) for overnight at 4° C. After washing with PBS, the cultures were incubated with Alexa Fluor 488-conjugated secondary antibodies (1:300, Molecular Probes) for 1 hour at room temperature. To assess the neurite outgrowth of axtomized DRG neurons after treatment of glycopyrrolate or mexiletine, 30 non-overlapping images were taken at 10× magnifications using Nikon Ni-E microscope equipped with a motorized stage. Total neurite length of individual DRG neurons from each treatment condition were measured by automated WIS-NeuroMath software (Weizmann Institute of Science). The total neurite length of the neurons was averaged from at least 250 neurons per condition. […]

[2] = test system: sciatic nerve crush injury; assay: sciatic nerve pinch test after sciatic nerve crush injury; type: in vivo, adult male C57BL/6 mice; settings: for increase of the most distal axonal regrowth (sciatic nerve pinch test): i.p. glycopyrrolate 2 mg/kg or mexiletine 10 mg/kg for 3 consecutive days after injury, 72 hours after crush, n=5-6 per group; for in vivo axon regeneration after sciatic nerve crush injury (pinch test), in words: i.p. glycopyrrolate 2 mg/kg or mexiletine 10 mg/kg, 3 days after injury
Method: (§1) (A) Experimental paradigm for sciatic nerve pinch test. Sciatic nerve crush injury was performed on the left sciatic nerve of adult male C57BL/6 mice. We performed nerve pinch test in adult mice injected intraperitoneally with glycopyrrolate (2 mg/kg) or mexiletine (10 mg/kg) for 3 consecutive days after injury. […] Scale bar: 100 μm. Mean±SEM; *P<0.05, Student's t-test.
(§2) In the current project, a sciatic nerve crush injury was used as an in vivo animal model for peripheral nerve injury. Adult male C57BL/6 mice (8-12 weeks old) were used for all experiments. All mouse husbandry and euthanasia were in compliance with the Institutional Animal Care and Use Committee (IACUC) guidelines. Surgical procedures performed were in accordance with protocols approved by the City University of Hong Kong Animal Research Ethics Sub-Committee and Department of Health, Hong Kong SAR. Under anesthesia, the left sciatic nerve was exposed, and crushed with 5/45 smooth forceps (Fine Science Tools) for 15 seconds at the level of external rotator muscles, distal to the sciatic notch after separation from the surrounding connective tissue (FIG. 2).
(§3) Glycopyrrolate or mexiletine was first dissolved in 0.9% saline, and injected intraperitoneally immediately after sciatic nerve crush injury for 3 consecutive days at 2 mg/kg and 10 mg/kg, respectively (FIGS. 3A and B).
(§4) The extent of axon regeneration was evaluated using sciatic nerve pinch test, and verified by quantifications of GAP-43-positive regenerating axonal fibres 72 hours after sciatic nerve crush injury.
Sciatic nerve pinch test was performed on the ipsilateral nerves 72 hours after sciatic nerve crush injury. The left sciatic nerve was first exposed to mid-thigh level under deep anaesthesia (i.e. 2.5% isoflurane). Under light anaesthesia (i.e. 1% isoflurane), a series of pinches were applied from the most distal part of the nerve (i.e. trifurcation), moving proximally towards the crushed site using smooth forceps (Fine Science Tools). The distance (in mm) representing the extent of axonal regrowth was recorded from the crushed site to the most distal point of the nerve where initial withdrawal response was observed after pinching (FIGS. 4A and C).

[3] = test system: sciatic nerve crush injury; settings: 72 hours after crush; for increase in number of GAP43-positive regenerating axons: i.p. glycopyrrolate 2 mg/kg or mexiletine 10 mg/kg for 3 days, 4 mm distal to the crushed site, n=3 per group; for GAP-43-positive regenerating axonal fibres at 4 mm distal to the crushed site, in words: i.p. glycopyrrolate 2 mg/kg or mexiletine 10 mg/kg
Method: as §1, §2, §3, §4

M1-M3 mAChRs = settings: background description of the drug; cited from earlier work

Cc1cccc(C)c1OCC(C)N (stereo not shown) [mexiletine]
average total neurite length (neurite outgrowth) [1]: induced robust neurite extension; also recorded: induce substantial neurite outgrowth
cell survival of DRG neurons [1]: did not exhibit any effects on cell survival; also recorded: without exerting any neuronal survival effects
increase of the most distal axonal regrowth (sciatic nerve pinch test) [2]: 59%
in vivo axon regeneration after sciatic nerve crush injury (pinch test), in words [2]: markedly accelerated in vivo axon regeneration; also recorded: significantly enhanced axon regeneration
increase in number of GAP43-positive regenerating axons [3]: 67%
GAP-43-positive regenerating axonal fibres at 4 mm distal to the crushed site, in words [3]: More GAP-43-positive regenerating axonal fiber were observed

C[N+]1(C)CCC(OC(=O)C(O)(c2ccccc2)C2CCCC2)C1 (stereo not shown) [glycopyrrolate]
average total neurite length (neurite outgrowth) [1]: induced robust neurite extension; also recorded: induce substantial neurite outgrowth
cell survival of DRG neurons [1]: did not exhibit any effects on cell survival; also recorded: without exerting any neuronal survival effects
selectivity among mAChR subtypes (M1-M3 mAChRs): no selectivity to M1-M3 mAChRs
increase of the most distal axonal regrowth (sciatic nerve pinch test) [2]: 61%
in vivo axon regeneration after sciatic nerve crush injury (pinch test), in words [2]: markedly accelerated in vivo axon regeneration; also recorded: significantly enhanced axon regeneration
increase in number of GAP43-positive regenerating axons [3]: 73%
GAP-43-positive regenerating axonal fibres at 4 mm distal to the crushed site, in words [3]: More GAP-43-positive regenerating axonal fiber were observed
